Data set [1] concerns the target T1, 5-hydroxytryptamine receptor 2C (Homo sapiens) (UniProt P28335).
T1 sequence (whole entry): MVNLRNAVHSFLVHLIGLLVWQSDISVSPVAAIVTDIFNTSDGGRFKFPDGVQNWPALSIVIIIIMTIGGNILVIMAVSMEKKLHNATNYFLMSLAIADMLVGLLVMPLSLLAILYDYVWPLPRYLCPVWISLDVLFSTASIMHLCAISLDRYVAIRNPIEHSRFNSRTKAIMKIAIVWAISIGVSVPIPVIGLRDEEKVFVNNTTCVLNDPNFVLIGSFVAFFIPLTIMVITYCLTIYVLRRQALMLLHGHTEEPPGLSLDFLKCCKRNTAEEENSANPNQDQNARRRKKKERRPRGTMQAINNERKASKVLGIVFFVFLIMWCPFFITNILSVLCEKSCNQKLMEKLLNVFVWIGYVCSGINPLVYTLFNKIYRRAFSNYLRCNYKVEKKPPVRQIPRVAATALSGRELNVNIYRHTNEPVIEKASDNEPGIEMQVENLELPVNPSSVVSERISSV
The data set is described as follows: 5-HT2C (h) CEREP ligand profiling. The note with it: Compound concentration 10.0 uM.

Data set [2] has as its target T2, Alpha-2A adrenergic receptor (Homo sapiens) (UniProt P08913).
T2 sequence (whole entry): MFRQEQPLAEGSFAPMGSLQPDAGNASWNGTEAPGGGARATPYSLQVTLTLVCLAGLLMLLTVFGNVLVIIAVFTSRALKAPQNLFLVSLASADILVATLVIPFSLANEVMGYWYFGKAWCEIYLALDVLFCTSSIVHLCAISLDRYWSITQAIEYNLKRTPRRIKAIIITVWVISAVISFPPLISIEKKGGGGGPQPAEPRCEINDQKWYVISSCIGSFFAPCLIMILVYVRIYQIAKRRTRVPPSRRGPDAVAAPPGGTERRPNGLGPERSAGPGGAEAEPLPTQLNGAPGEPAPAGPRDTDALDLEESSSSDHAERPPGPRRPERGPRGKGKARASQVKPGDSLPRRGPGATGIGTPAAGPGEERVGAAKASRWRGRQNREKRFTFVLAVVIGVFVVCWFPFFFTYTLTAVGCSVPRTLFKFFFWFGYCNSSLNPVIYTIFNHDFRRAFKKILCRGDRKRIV
The data set is described as follows: alpha 2A (h) CEREP ligand profiling. The settings on record: Compound concentration 10.0 uM.

For data set [3], the target named is Beta-1 adrenergic receptor (Homo sapiens) (UniProt P08588). Kind of data set: beta 1 (h) CEREP ligand profiling. The note with it: Compound concentration 10.0 uM.
In data set [4] the target is Cholecystokinin receptor type A (Homo sapiens) (UniProt P32238). The data set is described as follows: CCKA (h) (CCK1) CEREP ligand profiling. The settings on record: Compound concentration 10.0 uM.
Data set [5] has as its target High affinity choline transporter 1 (Homo sapiens) (UniProt Q9GZV3). Kind of data set: Choline transporter (h) (CHT1) CEREP ligand profiling. The note with it: Compound concentration 10.0 uM.
The target in data set [6] is Endothelin receptor type B (Homo sapiens) (UniProt P24530). Kind of data set: ETB (h) CEREP ligand profiling. The settings on record: Compound concentration 10.0 uM.
The next data set deals with Histamine H4 receptor (Homo sapiens, UniProt Q9H3N8). Kind of data set: H4 (h) CEREP ligand profiling. The settings on record: Compound concentration 10.0 uM.
For data set [7], the target named is Melanocortin receptor 4 (Homo sapiens) (UniProt P32245). Kind of data set: MC4 (h) CEREP ligand profiling. The note with it: Compound concentration 10.0 uM.
The target of data set [8] is Motilin receptor (Homo sapiens) (UniProt O43193). Kind of data set: Motilin (h) CEREP ligand profiling. The settings on record: Compound concentration 10.0 uM.
Data set [9] concerns the target Neuronal acetylcholine receptor; alpha4/beta2 (Homo sapiens) (UniProt P17787+P43681). Kind of data set: N (neuronal) (alpha -BGTX-insensitive) (alpha 4 beta 2) CEREP ligand profiling. Type of data set: protein-complex assay. The settings on record: Compound concentration 10.0 uM.
Data set [10] deals with Na+ channel (site 2), sodium channel alpha subunit (Homo sapiens, UniProt P35498+P35499+Q01118+Q14524+Q15858+Q99250+Q9NY46+Q9UI33+Q9UQD0+Q9Y5Y9). The data set is described as follows: Na+ channel (site 2) CEREP ligand profiling. Type of data set: protein assay. The settings on record: compound concentration 10 uM.
Data set [11] has as its system ALK tyrosine kinase receptor (Homo sapiens), Q9UM73 [C1156Y]. The note with it: Compound concentration 1000.0 nM.
Data set [12] concerns the target Ankyrin repeat and protein kinase domain-containing protein 1 (Homo sapiens) (UniProt Q8NFD2). The note with it: Compound concentration 1000.0 nM.
In data set [13] the target is Mitogen-activated protein kinase kinase kinase 6 (Homo sapiens) (UniProt O95382). The settings on record: Compound concentration 1000.0 nM.
Data set [14] addresses Tyrosine-protein kinase Blk (Homo sapiens) (UniProt P51451). The note with it: Compound concentration 1000.0 nM.
Data set [15] deals with Eukaryotic translation initiation factor 2-alpha kinase 1 (Homo sapiens) (UniProt Q9BQI3). The note with it: Compound concentration 1000.0 nM.
Data set [16] deals with Receptor tyrosine-protein kinase erbB-3 (Homo sapiens) (UniProt P21860). The settings on record: Compound concentration 1000.0 nM.
The target in data set [17] is Mitogen-activated protein kinase 1 (Homo sapiens) (UniProt P28482). The settings on record: Compound concentration 1000.0 nM.
For data set [18], the target named is Serine/threonine-protein kinase LATS1 (Homo sapiens) (UniProt O95835). The note with it: Compound concentration 1000.0 nM.
Data set [19] relates to Leucine-rich repeat serine/threonine-protein kinase 2 (Homo sapiens), Q5S007 [G2019S]. The note with it: Compound concentration 1000.0 nM.
Data set [20] addresses Mitogen-activated protein kinase kinase kinase 2 (Homo sapiens) (UniProt Q9Y2U5). The settings on record: Compound concentration 1000.0 nM.
For data set [21], the target named is Serine/threonine-protein kinase MARK2 (Homo sapiens) (UniProt Q7KZI7). The settings on record: Compound concentration 1000.0 nM.
In data set [22] the target is Dual specificity mitogen-activated protein kinase kinase 5 (Homo sapiens) (UniProt Q13163). The note with it: Compound concentration 1000.0 nM.
Data set [23] addresses Dual specificity mitogen-activated protein kinase kinase 7 (Homo sapiens) (UniProt O14733). The settings on record: Compound concentration 1000.0 nM.
Data set [24] deals with Myosin light chain kinase, smooth muscle (Homo sapiens) (UniProt Q15746). The note with it: Compound concentration 1000.0 nM.
In data set [25] the target is Myosin-IIIb (Homo sapiens) (UniProt Q8WXR4). The note with it: Compound concentration 1000.0 nM.
Data set [26] concerns the target Serine/threonine-protein kinase NLK (Homo sapiens) (UniProt Q9UBE8). The note with it: Compound concentration 1000.0 nM.
Data set [27] deals with Serine/threonine-protein kinase PAK 3 (Homo sapiens) (UniProt O75914). The settings on record: Compound concentration 1000.0 nM.
The target in data set [28] is Phosphatidylinositol 4-phosphate 5-kinase type-1 gamma (Homo sapiens) (UniProt O60331). The settings on record: Compound concentration 1000.0 nM.
Data set [29] has as its target Serine/threonine-protein kinase Sgk1 (Homo sapiens) (UniProt O00141). The note with it: Compound concentration 1000.0 nM.
Data set [30] concerns the target Tyrosine-protein kinase SYK (Homo sapiens) (UniProt P43405). The note with it: Compound concentration 1000.0 nM.
The target in data set [31] is Histamine H1 receptor (Homo sapiens) (UniProt P35367). The note with it: Compound concentration 10.0 uM.

As a reminder, the inhibition is the change of the read-out against control, counted positive when it falls.

Dual specificity mitogen-activated protein kinase kinase 7 (Homo sapiens), sequence (O14733 whole entry): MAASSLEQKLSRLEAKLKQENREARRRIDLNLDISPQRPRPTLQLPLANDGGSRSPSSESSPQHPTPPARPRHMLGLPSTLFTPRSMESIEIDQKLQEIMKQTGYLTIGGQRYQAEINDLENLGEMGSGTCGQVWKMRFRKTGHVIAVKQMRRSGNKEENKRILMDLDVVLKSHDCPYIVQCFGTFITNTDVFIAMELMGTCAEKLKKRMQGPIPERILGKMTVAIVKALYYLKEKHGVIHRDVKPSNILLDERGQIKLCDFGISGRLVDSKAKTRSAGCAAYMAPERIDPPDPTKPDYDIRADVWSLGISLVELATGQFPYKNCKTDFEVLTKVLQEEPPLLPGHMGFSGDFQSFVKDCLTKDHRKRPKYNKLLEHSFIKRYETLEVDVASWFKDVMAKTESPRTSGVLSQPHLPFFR
Serine/threonine-protein kinase NLK (Homo sapiens), sequence (Q9UBE8 whole entry): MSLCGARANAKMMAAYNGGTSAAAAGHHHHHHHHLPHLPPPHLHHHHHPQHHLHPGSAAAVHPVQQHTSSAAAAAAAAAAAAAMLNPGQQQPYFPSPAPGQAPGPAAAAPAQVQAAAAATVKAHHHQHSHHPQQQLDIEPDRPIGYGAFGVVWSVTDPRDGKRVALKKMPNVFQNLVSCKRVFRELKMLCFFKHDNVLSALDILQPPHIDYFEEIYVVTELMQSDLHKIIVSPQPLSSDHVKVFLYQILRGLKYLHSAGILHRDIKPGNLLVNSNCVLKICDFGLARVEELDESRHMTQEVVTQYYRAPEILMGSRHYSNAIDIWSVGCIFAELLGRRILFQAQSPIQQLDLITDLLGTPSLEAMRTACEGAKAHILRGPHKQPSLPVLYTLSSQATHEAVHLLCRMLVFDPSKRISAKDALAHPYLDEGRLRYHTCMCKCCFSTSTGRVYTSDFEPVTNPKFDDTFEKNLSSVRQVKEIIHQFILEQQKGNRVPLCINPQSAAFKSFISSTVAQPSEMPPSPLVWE
Myosin-IIIb (Homo sapiens), sequence (Q8WXR4 whole entry): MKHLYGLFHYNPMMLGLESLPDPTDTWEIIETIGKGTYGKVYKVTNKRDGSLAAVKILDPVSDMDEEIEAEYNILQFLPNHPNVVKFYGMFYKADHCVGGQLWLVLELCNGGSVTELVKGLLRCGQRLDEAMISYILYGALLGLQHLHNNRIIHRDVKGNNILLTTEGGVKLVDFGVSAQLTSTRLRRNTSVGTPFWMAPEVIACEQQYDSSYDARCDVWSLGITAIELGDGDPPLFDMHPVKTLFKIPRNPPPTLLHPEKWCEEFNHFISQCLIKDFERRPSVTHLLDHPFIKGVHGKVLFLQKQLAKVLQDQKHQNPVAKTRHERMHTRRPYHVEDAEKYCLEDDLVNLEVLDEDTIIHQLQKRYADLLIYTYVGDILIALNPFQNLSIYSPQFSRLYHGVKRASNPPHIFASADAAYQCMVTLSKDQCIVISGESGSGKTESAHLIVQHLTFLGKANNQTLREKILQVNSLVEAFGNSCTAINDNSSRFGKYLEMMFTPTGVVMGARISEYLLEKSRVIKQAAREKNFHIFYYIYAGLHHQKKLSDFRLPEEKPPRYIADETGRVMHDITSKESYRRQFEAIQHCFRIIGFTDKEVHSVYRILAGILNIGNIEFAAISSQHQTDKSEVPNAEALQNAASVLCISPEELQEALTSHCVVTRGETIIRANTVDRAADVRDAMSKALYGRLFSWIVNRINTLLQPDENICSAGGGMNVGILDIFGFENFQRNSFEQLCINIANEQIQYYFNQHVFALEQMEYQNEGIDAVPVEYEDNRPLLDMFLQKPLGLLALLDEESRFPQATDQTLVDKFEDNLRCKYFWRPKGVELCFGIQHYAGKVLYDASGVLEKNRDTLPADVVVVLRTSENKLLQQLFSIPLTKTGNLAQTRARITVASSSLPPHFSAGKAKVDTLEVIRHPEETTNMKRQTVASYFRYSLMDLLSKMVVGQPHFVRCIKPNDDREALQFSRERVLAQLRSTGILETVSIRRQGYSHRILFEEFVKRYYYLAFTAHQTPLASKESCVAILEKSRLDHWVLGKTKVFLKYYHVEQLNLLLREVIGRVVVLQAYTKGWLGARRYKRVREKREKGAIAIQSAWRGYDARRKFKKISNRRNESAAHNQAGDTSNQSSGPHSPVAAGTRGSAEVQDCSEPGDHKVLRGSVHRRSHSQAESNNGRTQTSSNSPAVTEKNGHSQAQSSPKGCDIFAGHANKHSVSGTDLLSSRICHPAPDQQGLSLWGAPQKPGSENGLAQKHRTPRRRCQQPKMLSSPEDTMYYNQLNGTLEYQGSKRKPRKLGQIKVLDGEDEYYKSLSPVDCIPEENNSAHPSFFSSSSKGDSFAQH
Mitogen-activated protein kinase kinase kinase 6 (Homo sapiens), sequence (O95382 whole entry): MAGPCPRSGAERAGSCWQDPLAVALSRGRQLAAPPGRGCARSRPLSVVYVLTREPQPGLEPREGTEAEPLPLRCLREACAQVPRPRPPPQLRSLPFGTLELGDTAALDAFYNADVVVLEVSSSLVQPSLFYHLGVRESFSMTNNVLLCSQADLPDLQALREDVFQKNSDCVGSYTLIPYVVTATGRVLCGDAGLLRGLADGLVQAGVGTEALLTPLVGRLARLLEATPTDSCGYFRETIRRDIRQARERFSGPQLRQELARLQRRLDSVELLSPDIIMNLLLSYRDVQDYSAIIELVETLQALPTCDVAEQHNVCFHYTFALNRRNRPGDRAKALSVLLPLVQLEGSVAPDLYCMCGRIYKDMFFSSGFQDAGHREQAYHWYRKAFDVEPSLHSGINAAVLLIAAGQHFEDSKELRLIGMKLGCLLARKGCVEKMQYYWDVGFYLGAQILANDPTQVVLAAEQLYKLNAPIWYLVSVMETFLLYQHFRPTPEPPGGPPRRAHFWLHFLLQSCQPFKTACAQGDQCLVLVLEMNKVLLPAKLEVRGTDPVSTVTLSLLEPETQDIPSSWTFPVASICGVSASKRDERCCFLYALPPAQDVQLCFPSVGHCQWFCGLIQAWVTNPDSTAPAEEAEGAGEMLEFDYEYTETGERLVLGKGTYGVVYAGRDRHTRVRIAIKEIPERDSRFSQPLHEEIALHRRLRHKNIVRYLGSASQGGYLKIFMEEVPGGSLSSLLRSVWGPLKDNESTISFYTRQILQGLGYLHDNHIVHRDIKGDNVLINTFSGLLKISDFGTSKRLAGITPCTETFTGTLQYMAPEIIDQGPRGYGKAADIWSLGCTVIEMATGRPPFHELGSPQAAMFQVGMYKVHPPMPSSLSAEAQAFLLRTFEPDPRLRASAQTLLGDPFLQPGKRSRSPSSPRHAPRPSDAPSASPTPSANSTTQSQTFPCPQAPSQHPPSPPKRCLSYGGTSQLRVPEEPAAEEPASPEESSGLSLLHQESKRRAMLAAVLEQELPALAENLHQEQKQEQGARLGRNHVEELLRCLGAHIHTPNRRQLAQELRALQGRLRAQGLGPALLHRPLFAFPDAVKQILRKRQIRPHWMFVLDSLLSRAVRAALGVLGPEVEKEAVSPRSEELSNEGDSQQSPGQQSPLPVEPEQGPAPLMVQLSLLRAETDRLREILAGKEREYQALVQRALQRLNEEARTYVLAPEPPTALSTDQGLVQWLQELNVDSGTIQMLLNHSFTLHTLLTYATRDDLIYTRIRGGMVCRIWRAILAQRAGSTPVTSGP
Histamine H4 receptor, sequence (Q9H3N8 whole entry): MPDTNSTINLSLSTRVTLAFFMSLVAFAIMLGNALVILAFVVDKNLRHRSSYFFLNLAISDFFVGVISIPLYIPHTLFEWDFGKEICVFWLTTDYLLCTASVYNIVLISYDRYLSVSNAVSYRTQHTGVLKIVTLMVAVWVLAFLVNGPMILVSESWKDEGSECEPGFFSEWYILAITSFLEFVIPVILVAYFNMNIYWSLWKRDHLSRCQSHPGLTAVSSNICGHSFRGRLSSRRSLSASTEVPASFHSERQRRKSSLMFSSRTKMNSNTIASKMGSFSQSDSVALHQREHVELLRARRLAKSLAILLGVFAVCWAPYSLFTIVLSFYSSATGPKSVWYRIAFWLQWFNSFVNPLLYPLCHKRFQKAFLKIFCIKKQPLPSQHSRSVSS
Mitogen-activated protein kinase kinase kinase 2 (Homo sapiens), sequence (Q9Y2U5 whole entry): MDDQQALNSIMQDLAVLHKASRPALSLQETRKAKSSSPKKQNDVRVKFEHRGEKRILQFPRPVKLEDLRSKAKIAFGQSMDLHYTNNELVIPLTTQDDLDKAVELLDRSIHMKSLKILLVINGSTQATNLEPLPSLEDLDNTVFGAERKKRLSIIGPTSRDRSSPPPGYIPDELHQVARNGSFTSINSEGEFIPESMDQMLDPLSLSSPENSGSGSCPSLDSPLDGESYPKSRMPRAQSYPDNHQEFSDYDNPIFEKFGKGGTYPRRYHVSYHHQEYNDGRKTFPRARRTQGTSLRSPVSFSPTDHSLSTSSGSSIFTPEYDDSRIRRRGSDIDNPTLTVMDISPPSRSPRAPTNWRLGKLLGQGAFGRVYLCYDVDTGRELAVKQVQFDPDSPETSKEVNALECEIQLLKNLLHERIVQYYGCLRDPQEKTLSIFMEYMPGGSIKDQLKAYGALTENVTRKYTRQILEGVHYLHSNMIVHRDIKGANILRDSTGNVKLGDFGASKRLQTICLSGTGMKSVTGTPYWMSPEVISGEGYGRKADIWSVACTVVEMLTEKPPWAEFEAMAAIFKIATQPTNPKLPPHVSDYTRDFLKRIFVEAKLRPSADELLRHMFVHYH
Serine/threonine-protein kinase Sgk1 (Homo sapiens), sequence (O00141 whole entry): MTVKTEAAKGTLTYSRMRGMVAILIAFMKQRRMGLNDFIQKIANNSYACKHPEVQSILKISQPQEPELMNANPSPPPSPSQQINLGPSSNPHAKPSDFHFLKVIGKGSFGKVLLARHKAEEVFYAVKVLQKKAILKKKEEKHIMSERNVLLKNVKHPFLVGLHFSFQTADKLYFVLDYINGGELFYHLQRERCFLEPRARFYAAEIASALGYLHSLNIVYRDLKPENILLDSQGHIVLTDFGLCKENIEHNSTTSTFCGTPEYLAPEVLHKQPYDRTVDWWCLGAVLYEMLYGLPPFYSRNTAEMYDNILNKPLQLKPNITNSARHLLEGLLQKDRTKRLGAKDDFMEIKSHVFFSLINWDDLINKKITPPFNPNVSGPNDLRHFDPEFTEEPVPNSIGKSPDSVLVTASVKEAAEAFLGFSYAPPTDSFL

Regarding `COc1ccc2cc(OCC3(C(=O)O)CN(C(=O)c4ccc(F)cc4)C3)ccc2c1` [PF-04418948], the inhibition in data set [1] was 8%; in data set [2], 26%; in data set [3], 9%; in data set [4], 29%; in data set [5], 4%; in data set [6] it was -1%. Besides, the inhibition was -4% on Histamine H4 receptor, 8% in [7], -5% in data set [8] and -10% in data set [9]. The inhibition at 10 µM in [10] is on record as 9% (not active). For the same compound, the residual activity in data set [11] was 79%; in data set [12], 86%; in data set [13], 95%; in data set [14] it was 93%; in [15], 94%; in data set [16], 89%. The residual activity in data set [17] is 97%; in data set [18], 87%; in data set [19], 84%; in [20], 96%; in data set [21], 91%; in data set [22], 93%. Also, the residual activity in data set [23] was 79%; in [24], 84%; in [25], 71%; in data set [26] it was 94%; in [27], 94%; in data set [28] it was 84%. Also, the residual activity in [29] is 81%; in [30], 64%.
Consider `O=C(c1ccc(F)cc1)N1CC(COc2ccc(Br)cc2)(C(=O)O)C1` [PF-04475866], for which the inhibition in data set [31] is -4.38%.

Source of the values: ChEMBL document CHEMBL4507298 (2021).
